Measured values from PMC6203393, “Identification of novel antimicrobial peptide from Asian sea bass (Lates calcarifer) by in silico and activity characterization” (PLoS ONE, 2018).
Where two headings read alike, the source gives them in different places.

Assays:
[1] = system: Escherichia coli (ATCC 25922); assay type: cell-based; conditions: for increase of MIC value: E.coli
Procedure: (§1) Briefly, a series of two-fold dilutions of each peptide(300, 150, 75, 37.5, 18.75, 9.37, 4.68 and 2.34μg/ml) was created with 0.01% acetic acid and 0.2% BSA (bovine serum albumin) and then 50 μl of each peptide dilution was added to each well of polystyrene flat bottom 96-well microplate (Sigma-Aldrich, Germany). Microbial suspension was diluted with BHI medium or RPMI medium to provide density of 1×10^6 cell/ml and 50 μl of diluted microbial suspension was added to wells containing 50 μl of peptide solution, providing a final concentration of 5×10^5 cell/ml and incubated for 18 hours at 37 °C. The sterility control well contained 100 μl of BHI (or RPMI), while the growth control well contained 100 μl of microbial suspension (5×10^5 cell/ml). The MIC values was defined as the lowest peptide concentration that prevented visible growth of the bacteria. Three independent tests were performed for each peptide concentration.
In the next step, the pH and salt concentration effect on MIC of AMPs were assayed. To evaluate the effect of cations on the antibacterial activity of AMPs, bacteria were cultured in the BHI medium containing increased concentrations of monovalent or divalent salt including NaCl (62,125,250 and 500 mM), MgCl2 (1,5, 10 and 30 mM), respectively.

[2] = system: Acinetobacterbaumannii(Clinical isolate); assay type: cell-based, Acinetobacter baumannii; conditions: Brain heart infusion; 5×10^5 cell/ml; 18 hours at 37 °C; three independent tests
Procedure: as §1

[3] = system: Candida albicans (clinical isolate); assay type: cell-based; conditions: RPMI medium; 5×10^5 cell/ml; 18 hours at 37 °C; three independent tests
Procedure: as §1

[4] = system: Candida glabrata(clinical isolate); assay type: cell-based; conditions: RPMI medium; 5×10^5 cell/ml; 18 hours at 37 °C; three independent tests
Procedure: as §1

[5] = system: Candida tropicalis(clinical isolate); assay type: cell-based; conditions: RPMI medium; 5×10^5 cell/ml; 18 hours at 37 °C; three independent tests
Procedure: as §1

[6] = system: Pseudomonas aeruginosa (ATCC10662); assay type: cell-based; conditions: Brain heart infusion; 5×10^5 cell/ml; 18 hours at 37 °C; three independent tests
Procedure: as §1

[7] = system: Staphylococcus aureus(ATCC 25923); assay type: cell-based; conditions: Brain heart infusion; 5×10^5 cell/ml; 18 hours at 37 °C; three independent tests
Procedure: as §1

[8] = system: Staphylococcus aureus(MRSA); assay type: cell-based; conditions: Brain heart infusion; 5×10^5 cell/ml; 18 hours at 37 °C; three independent tests
Procedure: as §1

[9] = system: Staphylococcus epidermidis (ATCC 1435); assay type: cell-based; conditions: Brain heart infusion; 5×10^5 cell/ml; 18 hours at 37 °C; three independent tests
Procedure: as §1

[10] = system: Enterococcus faecalis (ATCC:6057); assay: MIC at different pH values; assay type: cell-based; conditions: 37°C for 18 hours
Procedure: The antibacterial activity of both peptides were assessed against Enterococcus faecalis, a bacteria resistance to alkaline environments (ATCC:6057), at different pH values (pH range: 7.4, 8.5, 9.5, or 10.5). The bacteria were cultured in the BHI medium adjusted to varying pH values (pH range: 7.4, 8.5, 9.5, and 10.5). After incubation at 37°C for 18 hours, the MIC values were determined.

[11] = system: clinical A. baumannii isolate; assay: Time-kill analysis; assay type: cell-based, Acinetobacter baumannii; conditions: 5×10^5 cell/ml in BHI, 37°C, bactericidal = ≥3-log10 reduction, mean of two independent experiments
Procedure: Time-Kill assay was performed to investigate bactericidal activity of both peptides against antibiotic resistant bacteria including S. aureus (MRSA), and clinical A. baumannii isolate. […] Colony count was performed after incubation at 37°C for 0, 2, 4, 8, 12 and 24 h by plating of 10-fold dilutions on LB agar. […] The lower limit of detection for time-kill assays was 2 log10 CFU/ml.

E.coli = assay: Binding affinity to bacteria, cell-based fluorometric ELISA, salt effect; set-up: species or system Escherichia coli; conditions: in the presence of 10 mM MgCl2; 5-FAM-labeled peptide 2.5μg/ml, 2 hours at 37°C; fluorescence 490/560 nm
Procedure: Antimicrobial peptides bind to the bacterial cell wall through an electrostatic interaction between the positive charge of AMPs with the negative charge of the bacterial cell wall. […] To determine optimal binding conditions, different concentrations of the bacteria (12.5×10^7, 25×10^7, 5×10^8, 1×10^9 cell/ml) and 5-FAM-labeled peptide (1.25, 2.5, 5, and 10 μg/ml) were prepared. Bacterial suspension from each bacterial concentration was added to 4 wells of Maxisorp 96-well microplates (each well 100 μl) and incubated for 3 hours at 37°C without agitation. The planktonic cells were carefully discarded by pipetting and the adherent cells were washed three times with PBS buffer (pH 7.4). Bacteria were fixed with 100 μl of 4% paraformaldehyde and incubated for 0.5 hours at 37°C. The paraformaldehyde was removed and the wells were washed three times with PBS buffer (pH 7.4). The wells were air-dried and fixed cells were confirmed with an inverted microscope. […] After three washing steps with PBS-T buffer, the fluorescence intensity was measured using a fluorescence microplate reader (BioTek Synergy 4, USA) at 490/560 nm (Ex/Em). […] Under the optimized conditions, the binding affinity of both peptides to bacteria was assessed. […]

E. faecalis [12] = assay: Antiadhesive assay, pH effect (crystal violet); assay type: cell-based, Enterococcus faecalis; conditions: peptide at 1/32×MIC, BHI pH 7.4, 8.5, 9.5, 10.5, 1 hour, 595 nm
E. faecalis [13] = assay: Antibiofilm assay, pH effect (crystal violet); assay type: cell-based, Enterococcus faecalis; conditions: peptide at 1/32×MIC, BHI pH 7.4, 8.5, 9.5, 10.5, 24 hours, 595 nm
[14] = RP HPLC retention time of peptides; assay type: physicochemical; conditions: Inertsil ODS-SP 4.6*250 mm 5μm, linear 0–100% acetonitrile with 0.1% trifluoroacetic acid, 1ml/minute, 30 minutes, highest peak in 214 nm, used as hydrophobicity measure
Procedure: The retention time of the peptides were calculated by RP HPLC using an analytical SHIMADZU Inertsil ODS-SP (4.6*250 mm* 5μm) column. A linear gradient of 0–100% acetonitrile supplemented with 0.1% trifluoroacetic acid was used to elute peptides at a flow rate 1ml/minute for 30 minutes. The highest peak in 214 nm was considered as the retention time for each peptide.

FLRSLLRGAKAIYRGARAGWRG [Dicentracin-like, 22-amino-acid mature AMP from Asian sea bass; synthesized with N-terminal 5-FAM and amidated C-terminus]
Activity (MIC) against E.coli ([1]; BHI medium with MgCl2 1 mM): 4.68 µg/mL
Activity (MIC) against E.coli ([1]; BHI medium with MgCl2 5 mM): 18.75 µg/mL
Activity (MIC) against E.coli ([1]; BHI medium with MgCl2 10 mM): 18.75 µg/mL
Activity (MIC) against E.coli ([1]; BHI medium with MgCl2 30 mM): 75 µg/mL
Activity (MIC) against E.coli ([1]; BHI medium with NaCl 62 mM): 4.68 µg/mL
Activity (MIC) against E.coli ([1]; BHI medium with NaCl 125 mM): 4.68 µg/mL
Activity (MIC) against E.coli ([1]; BHI medium with NaCl 250 mM): 6.05 µg/mL
Activity (MIC) against E.coli ([1]; BHI medium with NaCl 500 mM): 9.37 µg/mL
minimum inhibitory concentration (MIC) ([1]; Brain heart infusion, 5×10^5 cell/ml, 18 hours at 37 °C, lowest concentration preventing visible growth, three independent tests): 4.68 µg/mL
increase of MIC value ([1]; in the presence of 5 mM and 10 mM MgCl2, MIC (MgCl2) /MIC): 4 fold
increase of MIC value ([1]; in the presence of 30 mM MgCl2): 16 fold
increase of MIC value ([1]; in the presence of 500 mM NaCl): 2 fold
Activity (MIC) against E.coli ([1]; Physiological salt concentrations (150 mM NaCl 3 mM CaCl2 2 mM MgCl2)): 4.68 µg/mL
minimum inhibitory concentration (MIC) [2]: 18.75 µg/mL
minimum inhibitory concentration (MIC) [3]: 4.68 to 9.37 µg/mL
minimum inhibitory concentration (MIC) [4]: >150 µg/mL
minimum inhibitory concentration (MIC) [5]: 4.68 to 9.37 µg/mL
minimum inhibitory concentration (MIC) [6]: 37.5 µg/mL
minimum inhibitory concentration (MIC) [7]: 4.68 µg/mL
minimum inhibitory concentration (MIC) [8]: 4.68 µg/mL
minimum inhibitory concentration (MIC) [9]: 1.17 µg/mL
MIC(fold increase) ([10]; BHI medium pH 7.4): 1 fold
MIC(fold increase) ([10]; BHI medium pH 8.5): 1 fold
MIC(fold increase) ([10]; BHI medium pH 8.5, listed as dicentracin-like): no reduction
MIC(fold increase) ([10]; BHI medium pH 9.5): 2 fold
MIC(fold increase) ([10]; BHI medium pH 10.5): 4 fold
time after which bactericidal effect was observed ([11]; 1XMIC): 4 h
time after which bactericidal effect was observed ([11]; 2XMIC): 2 h
reduction in affinity binding to bacteria (E.coli): 1.6 fold
antiadhesive activity (bacterial adhesion relative to corresponding control) (E. faecalis [12]): significantly decrease the bacterial adhesion and biofilm formation at pH values from 7.4 to 9.5
antibiofilm activity (biofilm formation relative to corresponding control) (E. faecalis [13]): significantly decrease the bacterial adhesion and biofilm formation at pH values from 7.4 to 9.5
retention time (main peak) [14]: 20.518 min
